Here are results for four compounds from paper PMC9814918, “Rapid optimisation of fragments and hits to lead compounds from screening of crude reaction mixtures” (Communications Chemistry, 2020).

Assay [1] addresses T1, PDHK2 (Homo sapiens, UniProt Q15119).
T1 construct: human PDHK2 (residues 16–407); His tag with TEV protease cleavage site (N, cleaved yes); made in house; host or cells: BL21 cells (E. coli)
Nature of the assay: FP assay. The assay is classed as binding. As to conditions: PDHK2, purified enantiomer; read-out: Kd determined by FP assay.

The target in assay [2] is T1, PDHK2. Nature of the assay: Soak of purified enantiomers into PDHK2 crystals. As to conditions: 2 days, 2 mM. It is filed as binding. As for the experimental part:
CRM number 11 is a racemate of two enantiomers, 23 and 24. […] A PR was obtained for all three of the soaks of CRM number 11 in the full XChem screen that selected just the higher-affinity eutomer 23.
A final concentration of 2 mM of each of the 13 CRMs and 17 pure compounds was added into crystal drops of PDHK2 in triplicate for soak-time durations of 2–4 h, O/N and 2 days at 4 °C. In addition, the final compound concentrations of 0.5 mM and 1 mM were added into PDHK2 crystal drops in triplicate, which were subsequently left to soak for 2 days also at 4 °C. Glycerol was added as a cryoprotectant (at a final concentration of 20%) by ECHO acoustic transfer shortly before mounting the crystals in cryo-cooled pucks. All data were collected on beamline I04-1 in automated mode and autoprocessed using xia2[23].

For assay [3], the target named is T2, Hsp90 (Homo sapiens, UniProt P07900).
T2 construct: N-terminal domain of human Hsp90α (residues 1–236); made in house; host or cells: BL21 cells (E. coli)
Nature of the assay: KD by SPR titration of purified compounds. The assay is classed as binding. As to conditions: purified product of the CRM, 25 °C, average of at least two determinations, read-out: KD (SPR) (µM) of pure. The source says: Table 3 summarises for each of the purified compounds from these nine CRMs, the results of a manual soaking of the purified compound or the CRM into Hsp90 crystals, and the measurement for the purified compounds of solubility and KD measured by both SPR titration and by isothermal titration calorimetry (ITC). […] This leaves anomalies for seven CRMs that gave SM. One of these had low solubility (CRM 75), leaving six CRMs giving SM on repeated manual soaking to explain.
(§1) SPR experiments were conducted on T200 and T100 BIAcore instruments (GE Healthcare) at 25 °C. The His-tagged proteins were immobilised on a series of S NTA chips, and the running buffer with 10 mM HEPES, pH 7.4, 150 mM NaCl, 0.05% P-20, 0.025 mM EDTA and 1% DMSO was used. The sensor surface was regenerated between cycles to eliminate any carryover of protein and/or analyte. Details are as described previously.
(In general: Surface plasmon resonance follows binding to a sensor surface in real time, without labels.)

Assay [4] concerns the target T2, Hsp90. Nature of the assay: SPR off-rate (koff) of crude reaction mixtures and starting materials. It is filed as binding. As to conditions: 25 °C. The procedure:
(§2) The off-rate or koff for dissociation of each of the 83 CRMs from Hsp90 and PDHK2 was measured in duplicate by SPR and is shown in Supplementary Table 1. Failure to obtain a koff value for some CRMs (not determined, ND) was due to poor signal and was most marked for PDHK2.
(§3) Both proteins (human PDHK2 (residues 16–407) and N-terminal domain of human Hsp90α (residues 1–236)) were expressed as an N-terminal His tag fusion protein with a TEV protease cleavage in BL21 cells and purified on a Ni^2+ affinity followed by size-exclusion column, details as previously described[13],[27]. Uncleaved His-tagged variants were used in SPR experiments; tags were removed for crystallisation.
as §1

The target of assay [5] is T1, PDHK2. The description is as above. It is filed as binding. The procedure:
as §2, §3, §1

The target in assay [6] is T2, Hsp90. Briefly: Isothermal titration calorimetry. As to conditions: read-out: KD measured by ITC for binding to Hsp90. The procedure: ITC experiments were conducted at 25 °C by titration of a stock sample of 100 µM compound onto a solution of 10 µM Hsp90 in a GE ITC200 instrument.
Background: ITC needs no label: the signal is the heat of the interaction.

[7] abbreviates: Hsp90, SPR, CRM (SM1, SM2: starting material), read-out: koff CRM.

Read-outs that look alike come from different tables or passages of the source.

For the compound `COc1cc2c(cc1OC)[C@@H](c1cccnc1)N(C(=O)c1ccc(O)cc1O)CC2` [Compound 24], the dissociation constant (Kd) – broadly, the constant that tells how readily two partners part at equilibrium – at PDHK2 [1] is 17 µM. The “crystal structure from soak of purified enantiomer into PDHK2 crystals” value on PDHK2 [2] is reported as “structures were obtained”.

`CN(C(=O)c1ccc(O)cc1O)c1ccc(C(N)=O)cc1` [SM2]: the equilibrium dissociation constant (Kd) on Hsp90 [3] was 2 µM. The koff – broadly, the first-order rate constant of dissociation – came to 0.2 s⁻¹ at Hsp90 [4] (setting [7]) and 0.083 s⁻¹ on PDHK2 [5] (read-out: koff for PDHK2).

On to `NC(=O)c1ccc(O)cc1O` [SM1], for which the Kd on Hsp90 [6] and at Hsp90 [3] was 2000 µM in each case. Also, the off-rate constant (koff) is greater than 1 s⁻¹ on Hsp90 [4] (setting [7]); no less than 1 s⁻¹ at Hsp90 [4] (SPR, CRM unpurified (SM1/SM2 head lines: starting material), duplicate, 1 given to all koff >= 1 sec-1 (limit of assay sensitivity), read-out: koff s-1 Hsp90); no less than 1 s⁻¹ on PDHK2 [5] (CRM unpurified (SM1/SM2 head lines: starting material), duplicate, 25 °C, 1 given to all koff >= 1 sec-1 (limit of assay sensitivity), read-out: koff s-1 PDHK2); greater than 1 s⁻¹ at PDHK2 [5] (read-out: koff for PDHK2).

Turning to `COc1cc2c(cc1OC)[C@H](c1cccnc1)N(C(=O)c1ccc(O)cc1O)CC2` [Compound 23], the Kd on PDHK2 [1] is 0.14 µM. The “crystal structure from soak of purified enantiomer into PDHK2 crystals” value on PDHK2 [2] is “structures were obtained”.
